Source: patent US20090136461A1, “Neuronal differentiation method of adult stem cells using small molecules” (priority 2007, published 2009)

What was measured:
Experiment in all cases: Neuronal differentiation, inverted microscope morphology
Type in all cases: cell-based, Fischer rats
[1] = tested on: adipose-derived stem cells; details: 10 μM small molecules; FIG. 3C, FIG. 4
Protocol: (§1) Bone marrow-derived mesenchymal stem cells subcultured for 5 generations were distributed on a well plate. One day later, the cells were treated with DMEM containing 20% FBS and 10 ng/mL b-FGF for a day, so that the cells could proliferate sufficiently. In order to induce differentiation into nerve cells, the cells were treated with differentiation medium containing the small molecules listed in Table 1. The small molecules were used after being dissolved in DMSO (Sigma, USA). The concentration of DMSO was less than 2% of the entire culture medium, and was diluted so that the small molecules were included with a concentration in the range from 1 μM to 100 μM. As negative control, DMEM containing 10% FBS and 1% penicillin-streptomycin was used. And, retinoic acid as positive control, which is a well-known inducer of differentiation into nerve cells, was used after being diluted to 2 μM in DMEM. Differentiation of muscle-derived stem cells and adipose-derived stem cells into nerve cells was induced similarly as in the bone marrow-derived stem cells.

[2] = tested on: bone marrow-derived mesenchymal stem cells; details: 10 μM small molecules; FIG. 3A
Protocol: as §1

[3] = tested on: muscle-derived stem cells; details: 10 μM small molecules; FIG. 3B
Protocol: as §1

| SMILES | differentiation (microscopic images) [1] | differentiation (inverted microscopic images) [2] | differentiation (inverted microscopic images) [3] |
| --- | --- | --- | --- |
| CC(CCCCC(C)(C)C(=O)NO)C(=O)Nc1ccccc1 (centres unmarked) [AAHA-2] | differentiated | – | – |
| O=C(NO)c1ccc(/C=C(/CNc2ccc(-c3ccccc3)cc2)COc2cccc3ccccc23)cc1 [BHA-3] | differentiated | – | – |
| COc1ccc(NC(=O)/C(=C/c2ccc(C(=O)NO)cc2)COc2cccc3ccccc23)cn1 [BHA-4] | differentiated | – | – |
| O=C(Nc1ccccc1)/C(=C/c1ccc(C(=O)NO)cc1)COc1ccc2oc3ccccc3c2c1 [BHA-2] | differentiated | – | – |
| O=C(CCc1ccc(C(=O)NO)cc1)Nc1cccc(OCc2ccccc2)c1 [BHA-1] | differentiated | differentiated | differentiated |
| C/C(=C/CCCCC(=O)NO)C(=O)NC1Cc2ccccc2C1 [AAHA-1] | differentiated | – | – |
| O=C(NO)c1ccc2c(c1)NC(CCCc1ccccc1)C(=O)N2 (centres unmarked) [QHA-2] | differentiated | differentiated | differentiated |
